Laboratory results taken from US20240132449A1, “HETEROCYCLIC COMPOUNDS AND METHODS OF USE THEREOF” (1cBio, Inc., priority 2022, published 2024).
Counter-ions that a name gives are not always drawn.

Assays:
PARP1 = PARP1 (Homo sapiens, UniProt P09874); experiment: PARP1 fluorescence polarization binding assay; conditions: binding IC50, GST-tagged PARP1 20 nM, PARPi-FL 3 nM
Experimental: Compounds of the present disclosure were tested in a PARP1 fluorescence polarization binding assay at Pharmaron (Beijing, P.R.China). In this biochemical assay, binding of test compound to recombinant human PARP1 reduces the amount of binding of a fluorescent probe, and consequently reduces the detected level of fluorescence polarization. Test compound stock solutions were prepared in DMSO and then serially diluted into 10 concentrations by 3-fold dilution in a 384-well plate using a TECAN EVO200. 60 nL of each dilution was transferred to the plate using an Echo550 (Labcyte), and then 10 μL 40 nM GST-tagged PARP1 (BPS Bioscience, Cat #80501), diluted in assay buffer (50 mM Tris pH 8.0, 0.001% Triton X-100, 10 mM MgCl2, 150 mM NaCl), was added to the plate. After a centrifugation at 1000 rpm for 1 min, the assay plate was incubated for 30 min at RT. 10 μL 6 nM PARPi-FL (TOCRIS, Cat #6461), diluted using assay buffer, was then added to the plate. The final concentrations of PARP1 and PARPi-FL were 20 nM and 3 nM, respectively, in a total volume of 20 μL. After a centrifugation at 1000 rpm for 1 min, the assay plate was incubated for 4 h at RT. Samples in each well were read using an Envision instrument (Perkin-Elmer; Ex=480 nm Em=FITC FP-P pol 535 nm & FITC FP-S pol 535 nm). Percent inhibition was calculated from mP values using Inhibition (%)=[1−(mPc−mPL)/(mPH−mPL)]×100%, where mPc, mPL, and mPH are the mP values of test compound, Low controls, and High controls, respectively. Binding IC50 values were calculated using XLFit (equation 201: y=A+((B−A)/(1+((x/C)^D))), where A=bottom, B=top, C=IC50, and D=slope) with a floating top and bottom for curves. Binding IC50 values are shown in Table A and are presented in ranges, in which “+++”<100 nM, 100 nM≤“++”<3000 nM, and “+”≥3000 nM.

recombinant human PARP2 = recombinant human PARP2 (Homo sapiens, UniProt Q9UGN5); experiment: PARP2 fluorescence polarization binding assay; conditions: for inhibition at 10 µM: read-out: PARP2 % inh at 10 μM; for IC50: binding IC50, GST-tagged PARP2 20 nM, PARPi-FL 3 nM
recombinant human PARP2, sequence (Q9UGN5 whole entry): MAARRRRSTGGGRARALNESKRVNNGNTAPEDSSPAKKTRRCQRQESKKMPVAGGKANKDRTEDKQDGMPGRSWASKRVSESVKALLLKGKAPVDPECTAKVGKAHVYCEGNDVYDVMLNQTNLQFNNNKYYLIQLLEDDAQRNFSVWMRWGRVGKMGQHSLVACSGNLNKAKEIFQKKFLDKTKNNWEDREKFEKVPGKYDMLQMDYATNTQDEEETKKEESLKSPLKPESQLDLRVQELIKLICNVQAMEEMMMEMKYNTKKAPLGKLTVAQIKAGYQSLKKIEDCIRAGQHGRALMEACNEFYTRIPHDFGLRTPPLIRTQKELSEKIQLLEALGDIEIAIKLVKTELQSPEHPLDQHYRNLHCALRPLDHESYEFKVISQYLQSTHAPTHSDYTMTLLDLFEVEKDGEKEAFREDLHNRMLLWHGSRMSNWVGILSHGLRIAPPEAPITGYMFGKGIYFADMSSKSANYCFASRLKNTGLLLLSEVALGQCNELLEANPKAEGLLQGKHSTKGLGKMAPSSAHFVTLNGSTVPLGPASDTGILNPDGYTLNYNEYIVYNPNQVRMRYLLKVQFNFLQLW
Experimental: Compounds of the present disclosure were tested in a PARP2 fluorescence polarization binding assay at Pharmaron (Beijing, P.R. China). In this biochemical assay, binding of test compound to recombinant human PARP2 reduces the amount of binding of a fluorescent probe, and consequently reduces the detected level of fluorescence polarization. Test compound stock solutions were prepared in DMSO and then serially diluted into 10 concentrations by 3-fold dilution in a 384-well plate using a TECAN EVO200. Alternatively, a single concentration was prepared. 60 nL of each dilution was transferred to the plate using an Echo550 (Labcyte), and then 10 μL 40 nM GST-tagged PARP2 (BPS Bioscience, Cat #80502), diluted in assay buffer (50 mM Tris pH 8.0, 0.001% Triton X-100, 10 mM MgCl2, 150 mM NaCl), was added to the plate. After a centrifugation at 1000 rpm for 1 min, the assay plate was incubated for 30 min at RT. 10 μL 6 nM PARPi-FL (TOCRIS, Cat #6461), diluted using assay buffer, was then added to the plate. […] After a centrifugation at 1000 rpm for 1 min, the assay plate was incubated for 4 h at RT. Samples in each well were read using an Envision instrument (Perkin-Elmer; Ex=480 nm Em=FITC FP-P pol 535 nm & FITC FP-S pol 535 nm). […] Binding IC50 values were calculated using XLFit (equation 201: […])^D))), where A=bottom, B=top, C=IC50, and D=slope) with a floating top and bottom for curves.

[1] = test system: DLD-1 wild-type colorectal adenocarcinoma cells; experiment: Cell viability assay (Cell Titer-Glo), DLD-1 wild-type; type: cell-based; conditions: Homo sapiens, DLD-1, 168 h, 7 days incubation; for inhibition at 10 µM: read-out: DLD-1 wild-type % inh at 10 μM; for IC50: 50 cells/well
Experimental: (§1) Compounds of the present disclosure were tested for their effects on the viability of cancer cells. DLD-1 wild-type and DLD-1 BRCA2(−/−) colorectal adenocarcinoma cells, an isogenic pair of cell lines differing in the presence and absence, respectively, of both BRCA2 alleles, were used. The cells were harvested during the logarithmic growth period, counted, and seeded at 50 cells/well for DLD-1 wild-type and 200 cells/well for DLD-1 BRCA2(−/−) in a 384-well cell culture plate. After seeding, cells were incubated at 37° C., 5% CO2 overnight. Cells were treated with serially diluted test compounds at 10 concentrations (e.g., from 1.5 nM-30 μM) for generation of dose response curves, or at a single concentration. The plate was further incubated for another 7 days in a humidified incubator at 37° C. and 5% CO2. Cell viability was assessed by luminescence measurement after addition of Cell Titer-Glo reagent (Promega, Madison, Wis.) according to the manufacturer's instructions. Cell viability IC50 values were calculated using XLFit, equation 201: y=A+((B−A)/(1+((x/C)^D))), where A=bottom, B=top, C=IC50, and D=slope. IC50 values are shown in Table B and are presented in ranges, in which “+++”<300 nM, 300 nM≤“++”<3000 nM, and “+”≥3000 nM. Values for percent inhibition at 10 μM are also shown in Table B and are presented in ranges, in which “***”≥67%, 33%≤“**”<67%, and “*”<33%. Effects of the test compounds on the viability of other cell lines such as MDA-MB-436, MDA-MB-231, SUM149PT, HCC1395, and UWB1.289 are determined in an analogous method.

[2] = test system: DLD-1 BRCA2(−/−) colorectal adenocarcinoma cells; experiment: Cell viability assay (Cell Titer-Glo), DLD-1 BRCA2(−/−); type: cell-based; conditions: Homo sapiens, DLD-1, 168 h; 7 days incubation, 200 cells/well
Experimental: as §1

PARP1, sequence (P09874 whole entry): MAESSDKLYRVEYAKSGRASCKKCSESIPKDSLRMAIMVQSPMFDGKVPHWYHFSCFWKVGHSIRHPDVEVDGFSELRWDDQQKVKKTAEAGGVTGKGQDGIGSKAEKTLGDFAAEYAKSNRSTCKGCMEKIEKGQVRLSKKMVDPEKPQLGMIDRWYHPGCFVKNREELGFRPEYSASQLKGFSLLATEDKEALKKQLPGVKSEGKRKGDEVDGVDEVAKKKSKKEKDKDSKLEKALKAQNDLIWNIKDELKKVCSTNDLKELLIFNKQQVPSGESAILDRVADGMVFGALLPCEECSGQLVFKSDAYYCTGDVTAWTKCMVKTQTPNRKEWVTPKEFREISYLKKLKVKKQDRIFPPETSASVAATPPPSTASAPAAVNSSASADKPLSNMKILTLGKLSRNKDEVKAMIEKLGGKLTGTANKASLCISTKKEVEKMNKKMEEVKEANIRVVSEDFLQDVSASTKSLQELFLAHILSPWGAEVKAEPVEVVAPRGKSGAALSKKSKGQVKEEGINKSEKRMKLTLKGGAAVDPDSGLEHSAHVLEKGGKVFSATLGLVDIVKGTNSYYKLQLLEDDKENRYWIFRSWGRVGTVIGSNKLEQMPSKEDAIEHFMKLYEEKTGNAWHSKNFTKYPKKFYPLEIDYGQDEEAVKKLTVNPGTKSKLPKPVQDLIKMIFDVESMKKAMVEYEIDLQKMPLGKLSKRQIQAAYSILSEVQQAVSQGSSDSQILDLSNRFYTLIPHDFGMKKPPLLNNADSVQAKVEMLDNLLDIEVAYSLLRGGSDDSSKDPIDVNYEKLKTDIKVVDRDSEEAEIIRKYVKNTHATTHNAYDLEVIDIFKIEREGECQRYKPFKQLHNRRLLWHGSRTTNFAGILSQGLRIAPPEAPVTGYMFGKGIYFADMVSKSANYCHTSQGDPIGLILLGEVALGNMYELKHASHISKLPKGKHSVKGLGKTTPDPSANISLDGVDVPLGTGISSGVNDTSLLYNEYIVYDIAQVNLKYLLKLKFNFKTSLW

Row | Compound | IC50 (PARP1) | inhibition at 10 µM (recombinant human PARP2) | IC50 (recombinant human PARP2) | inhibition at 10 µM [1] | IC50 [1] | IC50 [2]
1 | CNC(=O)c1ccc(N2CCN(Cc3ccc4c(=O)[nH]c(=O)[nH]c4c3)CC2)cn1 [Compound 1, 5-(4-((2,4-dioxo-1,2,3,4-tetrahydroquinazolin-7-yl)methyl)piperazin-1-yl)-N-methylpicolinamide formate] | 100 to 3000 nM | 33 to 67% | – | – | – | –
2 | CNC(=O)c1ccc(N2CCN(Cc3ccc4c(=O)n(C)c(=O)[nH]c4c3)CC2)cn1 [Compound 2] | < 100 nM | 33 to 67% | > 3000 nM | < 33% | > 3000 nM | 300 to 3000 nM
3 | CNC(=O)c1ccc(N2CCN(Cc3ccc4c(=O)n(C(C)C)c(=O)[nH]c4c3)CC2)cn1 [Compound 4, 5-(4-((3-isopropyl-2,4-dioxo-1,2,3,4-tetrahydroquinazolin-7-yl)methyl)piperazin-1-yl)-N-methylpicolinamide] | < 100 nM | 33 to 67% | > 3000 nM | 33 to 67% | > 3000 nM | > 3000 nM
4 | CNC(=O)c1ccc(N2CCN(Cc3ccc4c(=O)n(C5CC5)c(=O)[nH]c4c3)CC2)cn1 [Compound 5, 5-(4-((3-cyclopropyl-2,4-dioxo-1,2,3,4-tetrahydroquinazolin-7-yl)methyl)piperazin-1-yl)-N-methylpicolinamide] | < 100 nM | 33 to 67% | > 3000 nM | < 33% | > 3000 nM | > 3000 nM
5 | CCn1c(=O)[nH]c2cc(CN3CCN(c4ccc(C(=O)NC)nc4)CC3)ccc2c1=S [Compound 40, 5-(4-((3-ethyl-2-oxo-4-thioxo-1,2,3,4-tetrahydroquinazolin-7-yl)methyl)piperazin-1-yl)-N-methylpicolinamide formate] | < 100 nM | 33 to 67% | > 3000 nM | < 33% | > 3000 nM | 300 to 3000 nM
6 | CCn1c(=O)[nH]c2sc(CN3CCN(c4ccc(C(=O)NC)nc4)CC3)cc2c1=O [Compound 60, 5-(4-((3-ethyl-2,4-dioxo-1,2,3,4-tetrahydrothieno[2,3-d]pyrimidin-6-yl)methyl)piperazin-1-yl)-N-methylpicolinamide formate] | 100 to 3000 nM | 33 to 67% | – | < 33% | – | > 3000 nM
7 | CCn1c(=O)[nH]c2cc(CN3CCN(c4ccc(C(=O)NC)nc4)CC3)sc2c1=O [Compound 86, 5-(4-((3-ethyl-2,4-dioxo-1,2,3,4-tetrahydrothieno[3,2-d]pyrimidin-6-yl)methyl)piperazin-1-yl)-N-methylpicolinamide formate] | < 100 nM | 33 to 67% | > 3000 nM | < 33% | – | < 300 nM
8 | CCn1c(=O)[nH]c2cc(C(=O)N3CCN(c4ccc(C(=O)NC)nc4)CC3)ccc2c1=O [Compound 130, 5-(4-(3-ethyl-2,4-dioxo-1,2,3,4-tetrahydroquinazoline-7-carbonyl)piperazin-1-yl)-N-methylpicolinamide] | < 100 nM | 33 to 67% | > 3000 nM | – | – | –
9 | CCn1c(=O)[nH]c2sc(CN3CCN(c4ccc(C(=O)NC)nc4C)CC3)cc2c1=O [Compound 186] | < 100 nM | – | – | – | – | –
10 | CCn1c(=O)[nH]c2cc(CN3CCN(c4ccc(C(=O)NC)nc4C)CC3=O)sc2c1=O [Compound 305, 5-(4-((3-ethyl-2,4-dioxo-1,2,3,4-tetrahydrothieno[3,2-d]pyrimidin-6-yl)methyl)-3-oxopiperazin-1-yl)-N,6-dimethylpicolinamide] | < 100 nM | – | – | – | – | –
11 | CCn1c(=O)[nH]c2cc(CN3CCN(c4ccc(-n5cccn5)nc4C)CC3)sc2c1=O [Compound 306, 3-ethyl-6-({4-[2-methyl-6-(pyrazol-1-yl)pyridin-3-yl]piperazin-1-yl}methyl)-1H-thieno[3,2-d]pyrimidine-2,4-dione] | < 100 nM | – | – | – | – | –
12 | CCn1c(=O)[nH]c2cc(CN3CCN(c4ccc(C(=O)NC#N)nc4C)CC3)sc2c1=O [Compound 313, N-cyano-5-(4-((3-ethyl-2,4-dioxo-1,2,3,4-tetrahydrothieno[3,2-d]pyrimidin-6-yl)methyl)piperazin-1-yl)-6-methylpicolinamide, ammonia salt] | 100 to 3000 nM | 33 to 67% | > 3000 nM | – | – | –
13 | CCn1c(=O)[nH]c2cc(CN3CC(Oc4ccc(C(=O)NC)nc4C)C3)sc2c1=O [Compound 328] | 100 to 3000 nM | – | – | – | – | –
14 | CCn1c(=O)[nH]c2cc(CN3CCN(c4ccc(-c5ncc[nH]5)nc4C)CC3)sc2c1=O [Compound 357, 64(4-(6-(1H-imidazol-2-yl)-2-methylpyridin-3-yl)piperazin-1-yl) methyl)-3-ethylthieno[3,2-d]pyrimidine-2,4(1H,3H)-dione formate] | < 100 nM | – | – | – | – | –
15 | CCn1c(=O)[nH]c2cc(CN3CCN(c4ccc(C(=O)N5CCCC5)nc4C)CC3)sc2c1=O [Compound 526, 3-ethyl-6-[(4-{2-methyl-6-[(pyrrolidin-1-yl)carbonyl]pyridin-3-yl}piperazin-1-yl)methyl]-1H-thieno[3,2-d]pyrimidine-2,4-dione] | > 3000 nM | – | – | – | – | –
16 | CCn1c(=O)[nH]c2cc(CN3CCN(c4ccc(NC(C)=O)nc4C)CC3)sc2c1=O [Compound 528, N-(5-(4-((3-ethyl-2,4-dioxo-1,2,3,4-tetrahydrothieno[3,2-d]pyrimidin-6-yl)methyl)piperazin-1-yl)-6-methylpyridin-2-yl)acetamide] | < 100 nM | – | – | – | – | –
17 | CCn1c(=O)[nH]c2cc(CN3CCN(c4ccc(CNC)nc4C)CC3)sc2c1=O [Compound 529, 3-ethyl-6-((4-(2-methyl-6-((methylamino)methyl)pyridin-3-yl)piperazin-1-yl)methyl)thieno[3,2-d]pyrimidine-2,4(1H,3H)-dione] | > 3000 nM | – | – | – | – | –
18 | CCn1c(=O)[nH]c2sc(CN3CCN(c4ccc(C(=O)NC)nc4F)CC3)cc2c1=O [Compound 530, 5-(4-((3-ethyl-2,4-dioxo-1,2,3,4-tetrahydrothieno[2,3-d]pyrimidin-6-yl)methyl)piperazin-1-yl)-6-fluoro-N-methylpicolinamide bis formate] | < 100 nM | – | – | – | – | –
19 | CCn1c(=O)[nH]c2cc(CN3CCN(c4ccc(C#N)cn4)CC3)sc2c1=O [Compound 531] | < 100 nM | – | – | – | – | –
